# Patent US20070225344A1, “Sulfonamide derivatives to treat infection with hepatitis C virus” (priority 2006, published 2007)
# Target: T1, HCV RdRp NS5B d21BK (BK strain, 1b subtype) (Hepatitis C virus genotype 1b, UniProt P26663)
# T1 construct: NS5B from the BK strain (1b subtype) is expressed in E. coli as a protein in which the 21 C-terminal amino acids are replaced; made in house; host or cells: E. coli
# Assay: HCV polymerase (NS5B) RNA-dependent RNA polymerase inhibition, 33P-GTP filter assay
# Type: biochemical
# Settings: in vitro; NS5B BK strain (1b subtype), 24 nM enzyme, 2 h at room temperature; read-out: HCV Polymerase Median IC50
# Source text: The ability of the compounds of the present invention to inhibit hepatitis C polymerase was established by the following experimental procedure:
# NS5B from the BK strain (1b subtype) is expressed in E. coli as a protein in which the 21 C-terminal amino acids are replaced with a short linker and a hexahistidine tag (GSHHHHHH). The purified protein is mixed with radioactive nucleotides and allowed to replicate a heteropolymeric RNA substrate, primed by an endogenous short hairpin, resulting in an approximately 760 nt product. The radioactive product is captured on a filter and quantitated after removal of the unincorporated nucleotides.
# (1) Compounds 10 μl at 10 μg/ml in 15% DMSO
# Add 20 μl enzyme mix into each well of the assay plate. Incubate compound and enzyme at room temperature for 15 minutes.
# (3) Template Mix—Prepare Ahead.
# Spin down a tube of RNA (5 μg/tube stored in 75% ethanol and 0.3 M sodium acetate) in a microcentrifuge for 20 min. at 4° C. One tube is enough for 1 to 1½ plates. Remove as much ethanol from the tube as possible by inverting the tube. Be gentle, pellet RNA may not adhere to the tube. Vacuum dry the RNA. Resuspend the RNA by adding 1 ml of DEPC water, close the cap of the tube tightly. To dissolve RNA, incubate RNA solution on ice for ˜60 min. and gently vortex. Spin briefly to ensure all RNA solution is down to the bottom of the tube before opening cap. Gently transfer RNA solution into a 5 ml or larger tube. Add another 3 ml of DEPC water (total 4 ml of volume).
# Add the following volumes of reagents.
# Add 20 μl template mix per reaction (i.e. 20 ng of POF per reaction or ˜3 nM)
# (4) Incubate reaction at room temperature (22-25° C.) for 2 hours.
# (5) Stop reaction by adding 50 μl of 170 mM EDTA.
# Final concentration of EDTA is 85 mM.
# (6) Prewet filters of Millipore Multiscreen filter plate by adding 200 μl of 0.5 M sodium phosphate buffer, pH 7.0 into each well. Let stand at room temperature for 2-3 min.
# (7) Place the Multiscreen filter plate onto a Millipore Manifold and turn on vacuum to allow buffer to flow through. Turn off vacuum. Transfer 80 μl of the reaction product into each well of the filter plate. Let stand for 2-3 min. Turn on vacuum to filter reaction product.
# (8) Turn off vacuum. Add 200 μl of 0.5 M sodium phosphate buffer, pH 7.0 into each well to wash filter. Turn on vacuum.
# Repeat step (8) three more times.
# (9) Remove polypropylene bottom. Spot dry filter at the bottom with paper towel. Air dry filter plate on a bench for 1 hr. Add 40 μl Super Mix scintillant. Seal top of the plate with a tape. Place plate into a Packard carrier or MicroBeta carrier.
# (10) Count plate using a Packard Topcount or MicroBeta counter. Program 10 for ^33P in Top count or ^33P program in micro-beta.
# Percent inhibition is calculated after background subtraction as a percent reduction of activity relative to the positive control (average value of the plate excluding the negative controls).
# T1 sequence (P26663 2420-2997, looked up, natural form): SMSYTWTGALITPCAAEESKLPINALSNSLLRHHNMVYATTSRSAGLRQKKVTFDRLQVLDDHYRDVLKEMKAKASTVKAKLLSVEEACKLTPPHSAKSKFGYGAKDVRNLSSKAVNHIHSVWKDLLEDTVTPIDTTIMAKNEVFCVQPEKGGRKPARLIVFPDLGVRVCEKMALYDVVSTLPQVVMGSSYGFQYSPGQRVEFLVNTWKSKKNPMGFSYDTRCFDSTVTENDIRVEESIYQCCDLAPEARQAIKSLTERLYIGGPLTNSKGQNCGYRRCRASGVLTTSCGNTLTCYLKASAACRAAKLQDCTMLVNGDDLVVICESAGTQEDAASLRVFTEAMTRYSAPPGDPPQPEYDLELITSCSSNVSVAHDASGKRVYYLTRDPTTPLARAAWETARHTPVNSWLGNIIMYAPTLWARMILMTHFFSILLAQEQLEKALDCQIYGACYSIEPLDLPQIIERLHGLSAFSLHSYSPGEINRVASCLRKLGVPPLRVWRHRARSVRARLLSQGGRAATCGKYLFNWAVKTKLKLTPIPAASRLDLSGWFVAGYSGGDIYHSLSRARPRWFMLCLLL
row,Compound,IC50
1,"O=C(O)[C@@H]1CCCN1S(=O)(=O)c1cc(Cl)cc(Cl)c1O [Example 11, 1-[(3,5-dichloro-2-hydroxyphenyl)sulfonyl]-L-proline]",890 nM
2,"O=C(O)[C@@H]1CCCCN1S(=O)(=O)c1cc(Cl)cc(Br)c1O [Example 39, (2S)-1-[(3-bromo-5-chloro-2-hydroxyphenyl)sulfonyl]piperidine-2-carboxylic acid]",450 nM
3,"O=C(O)[C@H]1CCCCN1S(=O)(=O)c1cc(Cl)cc(Br)c1O [Example 40, (2R)-1-[(3-bromo-5-chloro-2-hydroxyphenyl)sulfonyl]piperidine-2-carboxylic acid]",1160 nM
4,"O=C(O)[C@@H]1CCCCN1S(=O)(=O)c1cc(F)cc(Cl)c1O [Example 41, (2S)-1-[(3-chloro-5-fluoro-2-hydroxyphenyl)sulfonyl]piperidine-2-carboxylic acid]",1890 nM
5,"O=C(O)[C@H]1CCCCN1S(=O)(=O)c1cc(Cl)cc(Cl)c1O [Example 42, (2R)-1-[(3,5-dichloro-2-hydroxyphenyl)sulfonyl]piperidine-2-carboxylic acid]",2010 nM
6,"O=C(O)[C@@H]1CCCCN1S(=O)(=O)c1cc(Cl)cc(Cl)c1O [Example 43, (2S)-1-[(3,5-dichloro-2-hydroxyphenyl)sulfonyl]piperidine-2-carboxylic acid]",7100 nM
7,"Cc1cc(N)c(S(=O)(=O)N2CCCC[C@@H]2C(=O)O)cc1Cl [Example 44, (2R)-1-[(2-amino-5-chloro-4-methylphenyl)sulfonyl]piperidine-2-carboxylic acid]",7900 nM
8,"O=C(O)[C@@H]1CSCN1S(=O)(=O)c1cc(Cl)c(Cl)c(Cl)c1O [Example 45, (4R)-3-[(3,4,5-trichloro-2-hydroxyphenyl)sulfonyl]-1,3-thiazolidine-4-carboxylic acid]",50 nM
9,"O=C(O)[C@H]1CSCN1S(=O)(=O)c1cc(Cl)c(Cl)c(Cl)c1O [Example 46, (4S)-3-[(3,4,5-trichloro-2-hydroxyphenyl)sulfonyl]-1,3-thiazolidine-4-carboxylic acid]",260 nM
10,"O=C(O)[C@@H]1CSCN1S(=O)(=O)c1cc(Cl)cc(Cl)c1O [Example 47, (4R)-3-[(3,5-dichloro-2-hydroxyphenyl)sulfonyl]-1,3-thiazolidine-4-carboxylic acid]",240 nM
11,"O=C(O)[C@@H]1CSCN1S(=O)(=O)c1cc(Br)cc(Br)c1O [Example 48, (4R)-3-[(3,5-dibromo-2-hydroxyphenyl)sulfonyl]-1,3-thiazolidine-4-carboxylic acid]",460 nM
12,"O=C(O)[C@@H]1CSCN1S(=O)(=O)c1cc(F)cc(Cl)c1O [Example 49, (4R)-3-[(3-chloro-5-fluoro-2-hydroxyphenyl)sulfonyl]-1,3-thiazolidine-4-carboxylic acid]",2130 nM
13,"O=C(O)[C@H]1CSCN1S(=O)(=O)c1cc(Cl)cc(Br)c1O [Example 50, (4S)-3-[(3-bromo-5-chloro-2-hydroxyphenyl)sulfonyl]-1,3-thiazolidine-4-carboxylic acid]",870 nM
14,"O=C(O)[C@H]1CSCN1S(=O)(=O)c1cc(Cl)cc(Cl)c1O [Example 51, (4S)-3-[(3,5-dichloro-2-hydroxyphenyl)sulfonyl]-1,3-thiazolidine-4-carboxylic acid]",1710 nM
15,"O=S(=O)(c1cc(Cl)cc(Cl)c1O)N1CCSC1 [Example 52, 2,4-dichloro-6-(1,3-thiazolidin-3-ylsulfonyl)phenol]",2350 nM
16,"Cc1cc(N)c(S(=O)(=O)N2CSC[C@@H]2C(=O)O)cc1Cl [Example 53, (4S)-3-[(2-amino-5-chloro-4-methylphenyl)sulfonyl]-1,3-thiazolidine-4-carboxylic acid]",3050 nM
17,"Cc1cc(S(=O)(=O)N2CSC[C@H]2C(=O)O)c(N)cc1Cl [Example 54, (4R)-3-[(2-amino-4-chloro-5-methylphenyl)sulfonyl]-1,3-thiazolidine-4-carboxylic acid]",4750 nM
18,"Cc1cc(S(=O)(=O)N2CSC[C@@H]2C(=O)O)c(N)cc1Cl [Example 55, (4S)-3-[(2-amino-4-chloro-5-methylphenyl)sulfonyl]-1,3-thiazolidine-4-carboxylic acid]",7500 nM
19,"O=C(O)[C@@H]1CSCN1S(=O)(=O)c1cc(Cl)cc(Br)c1O [Example 56, (4R)-3-[(3-bromo-5-chloro-2-hydroxyphenyl)sulfonyl]-1,3-thiazolidine-4-carboxylic acid]",11200 nM
20,"O=C(O)[C@H]1CSCN1S(=O)(=O)c1cc(F)cc(Cl)c1O [Example 57, (4S)-3-[(3-chloro-5-fluoro-2-hydroxyphenyl)sulfonyl]-1,3-thiazolidine-4-carboxylic acid]",14400 nM
21,"Cc1cc(N)c(S(=O)(=O)N2CSC[C@H]2C(=O)O)cc1Cl [Example 58, (4R)-3-[(2-amino-5-chloro-4-methylphenyl)sulfonyl]-1,3-thiazolidine-4-carboxylic acid]",1980 nM

# Test system: not given
# Assay: not given
# Settings: not given
row,Compound,melting point
1,"O=C(O)[C@@H]1CCCN1S(=O)(=O)c1cc(Cl)cc(Cl)c1O [Example 11, 1-[(3,5-dichloro-2-hydroxyphenyl)sulfonyl]-L-proline]",107.4 °C
